Results as given in patent publication US20220402948A1, “EGFR INHIBITOR, COMPOSITION AND PREPARATION METHOD THEREFOR” (BETTA PHARMACEUTICALS CO., LTD., priority 2019, published 2022).

Columns and labels:
A431 = A431 cell proliferation assay (CellTiter Glo, 72 hours); assay type: cell-based; conditions: Homo sapiens, A-431, 72 h, cell proliferation, A431, 72 hours, Table 2; read-out: A431 IC50
In short: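 A431 cells (2000/well) exposed 72 h to compound at 1000 nM down to 0.2 nM in 3-fold steps, 0.1% DMSO (0.5% for some series). Viability by CellTiter-Glo luminescence; IC50 by four-parameter nonlinear regression.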

EGFR WT = EGFR WT (Homo sapiens, UniProt P00533); assay: EGFR WT kinase test (mobility variation analysis, Caliper EZ Reader); assay type: biochemical; conditions: kinase enzymatic activity, Table 1
In short: (§1)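 Kinase pre-incubated with compound 10 minutes at room temperature, then ATP plus peptide substrate added; substrate conversion read by mobility shift after stop solution. Percent inhibition normalized to no-compound and no-enzyme controls; IC50 from variable-slope log(inhibitor) fit.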

IGF1R = IGF1R (Homo sapiens, UniProt P08069); assay: IGF1R kinase test (mobility variation analysis, Caliper EZ Reader); assay type: biochemical; conditions: kinase enzymatic activity, Table 1; read-out: EGFR IGF1R IC50
In short: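 Kinase preincubated 10 min at room temperature with compound (10-point 3-fold series, top 3000 nM), then ATP and substrate added and reacted at room temperature. Substrate conversion read by mobility-shift (Caliper EZ Reader); % inhibition vs no-enzyme and no-compound controls fitted to variable-slope curve for IC50.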

[1] = target: Ba/F3-EGFR wild-type cell line (Homo sapiens, UniProt P00533); assay: Ba/F3-EGFR wild-type cell proliferation assay (CellTiter Glo, 72 hours); assay type: cell-based; conditions: Table 2, read-out: EGFR WT IC50
In short: (§2)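 Ba/F3 cells stably overexpressing wild-type EGFR or EGFR Δ19del/T790M/C797S were seeded at 2000 cells/well and incubated 72 h with compound. Viability was read by CellTiter-Glo luminescence, and IC50 came from a four-parameter logistic fit of signal against log concentration.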

[2] = target: Ba/F3 cells with EGFR Δ19del/T790M/C797S mutation gene stably overexpressed (Homo sapiens, UniProt P00533, T790M/C797S, cells depend on it, form not given); assay: Ba/F3-Δ19del/T790M/C797S cell proliferation assay (CellTiter Glo, 72 hours); assay type: cell-based; conditions: Table 2, read-out: EGFR Δ19del/T790M/C797S IC50
In short: as §2

EGFRΔ19del/T790M/C797S = EGFRΔ19del/T790M/C797S (Homo sapiens, UniProt P00533, T790M/C797S, form not given); assay: EGFR Δ19del/T790M/C797S kinase test (mobility variation analysis, Caliper EZ Reader); assay type: biochemical; conditions: kinase enzymatic activity, Table 1
In short: as §1

IGF1R, sequence (P08069 31-1367, species assumed): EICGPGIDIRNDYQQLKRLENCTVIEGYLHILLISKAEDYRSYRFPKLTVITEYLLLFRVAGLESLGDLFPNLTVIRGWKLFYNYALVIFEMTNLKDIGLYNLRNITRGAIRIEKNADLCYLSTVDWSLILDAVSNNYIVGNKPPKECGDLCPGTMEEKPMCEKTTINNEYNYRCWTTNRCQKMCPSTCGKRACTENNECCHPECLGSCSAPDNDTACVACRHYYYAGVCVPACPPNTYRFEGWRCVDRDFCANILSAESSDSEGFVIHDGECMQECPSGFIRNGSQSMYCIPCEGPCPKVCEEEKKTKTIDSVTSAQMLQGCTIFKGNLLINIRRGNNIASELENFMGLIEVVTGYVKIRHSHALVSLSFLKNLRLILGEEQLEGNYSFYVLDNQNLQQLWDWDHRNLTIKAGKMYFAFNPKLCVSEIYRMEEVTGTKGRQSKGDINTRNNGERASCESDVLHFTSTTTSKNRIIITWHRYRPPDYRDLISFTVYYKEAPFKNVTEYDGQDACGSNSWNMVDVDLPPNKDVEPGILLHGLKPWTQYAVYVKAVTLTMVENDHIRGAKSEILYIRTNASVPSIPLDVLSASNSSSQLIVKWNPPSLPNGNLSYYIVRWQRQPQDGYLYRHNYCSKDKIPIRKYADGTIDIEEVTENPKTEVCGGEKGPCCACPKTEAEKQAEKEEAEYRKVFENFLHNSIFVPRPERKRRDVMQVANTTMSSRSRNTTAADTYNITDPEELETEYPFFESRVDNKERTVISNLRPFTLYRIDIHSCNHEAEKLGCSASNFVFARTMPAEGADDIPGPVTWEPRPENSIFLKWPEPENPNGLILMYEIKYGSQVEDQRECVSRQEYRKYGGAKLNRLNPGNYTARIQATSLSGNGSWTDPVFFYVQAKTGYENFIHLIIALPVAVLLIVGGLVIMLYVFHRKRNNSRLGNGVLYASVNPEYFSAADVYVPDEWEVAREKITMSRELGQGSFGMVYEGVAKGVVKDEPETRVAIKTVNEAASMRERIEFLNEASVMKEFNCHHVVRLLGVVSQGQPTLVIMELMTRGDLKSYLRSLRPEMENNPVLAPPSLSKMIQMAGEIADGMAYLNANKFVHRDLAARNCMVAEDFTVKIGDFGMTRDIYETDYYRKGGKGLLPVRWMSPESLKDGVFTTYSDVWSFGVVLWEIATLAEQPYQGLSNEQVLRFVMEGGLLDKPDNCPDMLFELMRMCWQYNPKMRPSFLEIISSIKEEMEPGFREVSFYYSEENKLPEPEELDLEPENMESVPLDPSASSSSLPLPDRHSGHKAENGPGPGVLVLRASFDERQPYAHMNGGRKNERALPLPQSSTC
EGFR WT, sequence (P00533 25-1210): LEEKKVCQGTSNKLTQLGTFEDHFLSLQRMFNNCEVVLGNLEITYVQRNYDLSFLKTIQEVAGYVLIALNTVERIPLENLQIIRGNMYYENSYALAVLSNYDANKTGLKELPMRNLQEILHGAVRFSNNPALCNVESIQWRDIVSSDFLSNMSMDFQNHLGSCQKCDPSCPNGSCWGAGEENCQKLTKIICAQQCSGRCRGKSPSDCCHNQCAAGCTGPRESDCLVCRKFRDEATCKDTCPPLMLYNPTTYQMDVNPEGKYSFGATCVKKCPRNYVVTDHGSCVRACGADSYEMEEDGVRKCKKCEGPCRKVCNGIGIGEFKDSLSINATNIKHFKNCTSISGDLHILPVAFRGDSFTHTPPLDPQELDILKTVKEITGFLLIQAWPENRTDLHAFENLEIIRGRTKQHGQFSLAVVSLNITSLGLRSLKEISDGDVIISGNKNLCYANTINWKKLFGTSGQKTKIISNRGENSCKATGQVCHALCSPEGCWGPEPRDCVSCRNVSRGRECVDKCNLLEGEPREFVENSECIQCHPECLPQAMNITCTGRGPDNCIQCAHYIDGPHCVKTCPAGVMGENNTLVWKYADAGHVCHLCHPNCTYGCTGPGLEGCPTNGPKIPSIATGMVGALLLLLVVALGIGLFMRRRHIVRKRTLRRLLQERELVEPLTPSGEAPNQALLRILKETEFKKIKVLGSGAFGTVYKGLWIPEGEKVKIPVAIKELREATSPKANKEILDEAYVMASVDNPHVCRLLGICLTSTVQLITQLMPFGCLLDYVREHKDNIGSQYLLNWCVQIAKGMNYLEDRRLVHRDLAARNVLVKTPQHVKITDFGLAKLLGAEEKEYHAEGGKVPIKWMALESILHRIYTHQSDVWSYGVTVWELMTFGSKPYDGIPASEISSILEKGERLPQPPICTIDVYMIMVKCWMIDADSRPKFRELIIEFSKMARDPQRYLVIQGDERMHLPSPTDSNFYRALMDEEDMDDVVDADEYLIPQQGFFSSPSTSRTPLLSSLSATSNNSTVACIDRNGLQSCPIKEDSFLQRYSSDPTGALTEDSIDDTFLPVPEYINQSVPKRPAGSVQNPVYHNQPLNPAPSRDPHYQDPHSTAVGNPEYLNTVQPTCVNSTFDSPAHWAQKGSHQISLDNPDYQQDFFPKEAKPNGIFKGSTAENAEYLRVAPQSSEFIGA
Ba/F3-EGFR wild-type cell line, sequence (P00533 whole entry, stated change not applied): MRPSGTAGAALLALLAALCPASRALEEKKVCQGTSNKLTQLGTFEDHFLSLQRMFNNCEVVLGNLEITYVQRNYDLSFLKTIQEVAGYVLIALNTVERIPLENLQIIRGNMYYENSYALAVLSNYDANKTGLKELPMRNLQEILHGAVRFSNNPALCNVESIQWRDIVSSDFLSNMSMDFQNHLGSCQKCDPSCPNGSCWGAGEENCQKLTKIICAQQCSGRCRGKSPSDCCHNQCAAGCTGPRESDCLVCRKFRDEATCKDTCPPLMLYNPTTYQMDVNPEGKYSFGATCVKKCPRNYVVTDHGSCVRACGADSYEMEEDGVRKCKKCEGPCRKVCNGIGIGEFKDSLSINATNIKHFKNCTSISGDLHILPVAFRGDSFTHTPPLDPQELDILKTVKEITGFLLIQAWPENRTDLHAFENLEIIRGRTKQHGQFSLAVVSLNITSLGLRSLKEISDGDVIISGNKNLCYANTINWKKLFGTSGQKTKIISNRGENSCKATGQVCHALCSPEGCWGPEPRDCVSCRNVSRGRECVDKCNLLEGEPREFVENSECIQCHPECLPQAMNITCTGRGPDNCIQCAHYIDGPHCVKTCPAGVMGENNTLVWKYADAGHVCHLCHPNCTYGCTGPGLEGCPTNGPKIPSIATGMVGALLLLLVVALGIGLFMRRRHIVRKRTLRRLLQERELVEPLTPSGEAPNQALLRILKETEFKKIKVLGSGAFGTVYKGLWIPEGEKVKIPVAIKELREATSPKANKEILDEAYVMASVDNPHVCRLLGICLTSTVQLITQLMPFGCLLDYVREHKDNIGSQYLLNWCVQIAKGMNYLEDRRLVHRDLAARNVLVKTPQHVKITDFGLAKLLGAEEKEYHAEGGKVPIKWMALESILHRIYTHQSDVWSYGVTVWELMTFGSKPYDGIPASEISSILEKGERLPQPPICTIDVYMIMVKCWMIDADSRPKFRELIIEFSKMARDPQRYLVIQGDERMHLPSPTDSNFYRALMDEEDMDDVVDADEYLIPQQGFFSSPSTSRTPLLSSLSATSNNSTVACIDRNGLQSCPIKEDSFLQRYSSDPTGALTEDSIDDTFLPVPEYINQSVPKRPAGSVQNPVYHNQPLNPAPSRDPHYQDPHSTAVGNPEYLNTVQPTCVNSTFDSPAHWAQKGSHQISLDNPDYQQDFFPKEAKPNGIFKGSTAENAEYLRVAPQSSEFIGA
Ba/F3 cells with EGFR Δ19del/T790M/C797S mutation gene stably overexpressed, sequence (P00533 with tags, fused parts or gaps DEL746-750/T790M/C797S, form open): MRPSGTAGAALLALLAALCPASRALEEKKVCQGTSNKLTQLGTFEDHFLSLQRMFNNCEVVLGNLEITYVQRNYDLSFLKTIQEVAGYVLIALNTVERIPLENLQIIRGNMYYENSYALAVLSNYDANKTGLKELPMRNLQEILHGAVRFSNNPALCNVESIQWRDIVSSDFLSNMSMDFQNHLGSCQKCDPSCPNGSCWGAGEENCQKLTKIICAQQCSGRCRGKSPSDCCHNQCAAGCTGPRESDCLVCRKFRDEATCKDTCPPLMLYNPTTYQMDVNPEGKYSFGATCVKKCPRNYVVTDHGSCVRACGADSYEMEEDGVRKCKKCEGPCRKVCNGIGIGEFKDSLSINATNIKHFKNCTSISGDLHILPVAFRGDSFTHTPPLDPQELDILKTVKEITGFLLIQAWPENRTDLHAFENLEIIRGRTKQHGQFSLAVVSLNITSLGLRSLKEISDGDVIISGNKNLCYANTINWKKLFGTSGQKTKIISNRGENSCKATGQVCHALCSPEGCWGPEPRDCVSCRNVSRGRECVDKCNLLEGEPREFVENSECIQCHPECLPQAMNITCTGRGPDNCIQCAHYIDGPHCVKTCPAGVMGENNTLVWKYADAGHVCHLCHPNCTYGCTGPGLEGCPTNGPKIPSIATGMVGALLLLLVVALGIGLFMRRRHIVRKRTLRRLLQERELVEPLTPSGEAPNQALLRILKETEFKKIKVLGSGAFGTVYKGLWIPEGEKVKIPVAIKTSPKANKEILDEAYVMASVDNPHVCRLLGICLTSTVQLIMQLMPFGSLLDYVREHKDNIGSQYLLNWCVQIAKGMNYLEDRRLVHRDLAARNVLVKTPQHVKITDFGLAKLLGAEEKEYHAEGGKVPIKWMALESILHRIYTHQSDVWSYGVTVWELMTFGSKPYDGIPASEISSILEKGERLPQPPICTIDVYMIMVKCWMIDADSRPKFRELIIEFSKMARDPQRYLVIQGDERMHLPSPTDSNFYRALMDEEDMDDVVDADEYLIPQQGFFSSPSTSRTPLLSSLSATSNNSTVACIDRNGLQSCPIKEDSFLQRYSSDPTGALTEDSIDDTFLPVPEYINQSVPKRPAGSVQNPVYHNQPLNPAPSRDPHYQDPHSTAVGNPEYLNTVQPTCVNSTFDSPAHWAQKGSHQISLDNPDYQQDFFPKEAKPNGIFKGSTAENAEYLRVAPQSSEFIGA

CCc1cc(Nc2ncc(Br)c(Nc3ccc(-c4cnccn4)cc3P(C)(C)=O)n2)c(OC)cc1N1CCC(N2CCN(C)CC2)CC1 [Compound 78, (2-((5-Bromo-2-((5-ethyl-2-methoxy-4-(4-(4-methylpiperazin-1-yl)piperidin-1-yl)phenyl)amino)pyrimidin-4-yl)amino)-5-(pyrazin-2-yl)phenyl)dimethylphosphine oxide]
IC50 (A431): 1090 nM
IC50 (EGFR WT): 12.6 nM
IC50 (IGF1R): 94 nM
GI50 [1]: 134 nM
GI50 [2]: 7.2 nM
IC50 (EGFRΔ19del/T790M/C797S): 0.2 nM

CCc1cc(Nc2ncc(Br)c(Nc3ccc(-c4cnn(C)n4)c(F)c3P(C)(C)=O)n2)c(OC)cc1N1CCC(N2CCN(C)CC2)CC1 [Compound K-007, (6-((5-Bromo-2-((5-ethyl-2-methoxy-4-(4-(4-methylpiperazin-1-yl)piperidin-1-yl)phenyl)amino)pyrimidin-4-yl)amino)-2-fluoro-3-(2-methyl-2H-1,2,3-triazol-4-yl)phenyl)dimethylphosphine oxide]
IC50 (A431): 1440 nM
IC50 (EGFR WT): 5.2 nM
IC50 (IGF1R): 54.9 nM
GI50 [1]: 130 nM
GI50 [2]: 3.2 nM
IC50 (EGFRΔ19del/T790M/C797S): 0.1 nM

COc1cc(N2CCC(N3CCN(C)CC3)CC2)c(C)cc1Nc1ncc(Br)c(Nc2ccc(-c3cnn(C)n3)cc2P(C)(C)=O)n1 [Compound K-008, (2-((5-Bromo-2-((2-methoxy-5-methyl-4-(4-(4-methylpiperazin-1-yl)piperidin-1-yl)phenyl)amino)pyrimidin-4-yl)amino)-5-(2-methyl-2H-1,2,3-triazol-4-yl)phenyl)dimethylphosphine oxide]
IC50 (A431): 415 nM
IC50 (EGFR WT): 15 nM
IC50 (IGF1R): 120 nM
GI50 [1]: 169 nM
GI50 [2]: 4.8 nM
IC50 (EGFRΔ19del/T790M/C797S): 0.24 nM

C#Cc1cnn(-c2ccc(Nc3nc(Nc4cc(CC)c(N5CCC(N6CCN(C)CC6)CC5)cc4OC)ncc3Br)c(P(C)(C)=O)c2)c1 [Compound K-009, (2-((5-Bromo-2-((5-ethyl-2-methoxy-4-(4-(4-methylpiperazin-1-yl)piperidin-1-yl)phenyl)amino)pyrimidin-4-yl)amino)-5-(4-ethynyl-1H-pyrazol-1-yl)phenyl)dimethylphosphine oxide]
IC50 (A431): 2460 nM
IC50 (EGFR WT): 21 nM
IC50 (IGF1R): 165 nM
GI50 [1]: 268 nM
GI50 [2]: 16.4 nM
IC50 (EGFRΔ19del/T790M/C797S): 0.23 nM

C#Cc1cnc(-c2ccc(Nc3nc(Nc4cc(CC)c(N5CCC(N6CCN(C)CC6)CC5)cc4OC)ncc3Br)c(P(C)(C)=O)c2)cn1 [Compound K-010, (2-((5-Bromo-2-((5-ethyl-2-methoxy-4-(4-(4-methylpiperazin-1-yl)piperidin-1-yl)phenyl)amino)pyrimidin-4-yl)amino)-5-(5-ethynylpyrazin-2-yl)phenyl)dimethylphosphine oxide]
IC50 (A431): 693 nM
IC50 (EGFR WT): 17 nM
IC50 (IGF1R): 46 nM
GI50 [1]: 52.8 nM
GI50 [2]: 7.2 nM
IC50 (EGFRΔ19del/T790M/C797S): 0.4 nM

C#Cc1cnc(-c2ccc(Nc3nc(Nc4cc(C)c(N5CCC(N6CCN(C)CC6)CC5)cc4OC)ncc3Br)c(P(C)(C)=O)c2)cn1 [Compound K-011]
IC50 (A431): 4450 nM
IC50 (EGFR WT): 28 nM
IC50 (IGF1R): 104 nM
GI50 [1]: 81.8 nM
GI50 [2]: 7.4 nM
IC50 (EGFRΔ19del/T790M/C797S): 0.45 nM

COc1cc(Nc2ncc(Br)c(Nc3ccc(-c4cnn(C)n4)c(F)c3P(C)(C)=O)n2)c(C)cc1N1CCC(N2CCN(C)CC2)CC1 [Compound K-012, (6-((5-Bromo-2-((5-methoxy-2-methyl-4-(4-(4-methylpiperazin-1-yl)piperidin-1-yl)phenyl)amino)pyrimidin-4-yl)amino)-2-fluoro-3-(2-methyl-2H-1,2,3-triazol-4-yl)phenyl)diniethylphosphine oxide]
IC50 (A431): 5220 nM
IC50 (EGFR WT): 12 nM
IC50 (IGF1R): 35 nM
GI50 [1]: 46 nM
GI50 [2]: 2.6 nM
IC50 (EGFRΔ19del/T790M/C797S): 0.19 nM
